Data on 17 compounds can be found in patent US20240336977A1, “MICRORNA-REGULATED BIOMARKERS AND DRUG TARGETS FOR IMPROVING DIAGNOSIS AND TREATMENT OF LUNG OR BREAST CANCER” (West Virginia University Board of Governors on behalf of …, priority 2023, published 2024).

The test system of data set [1] is MCF7 cells. Put plainly: Drug sensitivity categorisation of breast cancer cell line MCF7. As to conditions: Luminal A MCF7 cells; categorised from IC50, ln(IC50), EC50, ln(EC50). Type of data set: cell-based, human. The source says: (§1) Drug Sensitivity Data of Breast Cancer Cell Lines The drug sensitivity data of breast cancer cell lines were obtained from two distinct sources. The first source was the Profiling Relative Inhibition Simultaneously in Mixtures (PRISM) [Corsello, S. M.; Nagari, R. T.; Spangler, R. D.; Rossen, J.; Kocak, M.; Bryan, J. G.; Humeidi, R.; Peck, D.; Wu, X.; Tang, A. A.; et al. Discovering the anti-cancer potential of non-oncology drugs by systematic viability profiling. Nature cancer 2020, 1, 235-248, doi:10.1038/s43018-019-0018-6] secondary screen data, which was provided in the DepMap 19Q4 data release (https://depmap.org/portal, accessed on 23 May 2023). The second source encompassed the Genomics of Drug Sensitivity in Cancer (GDSC1 and GDSC2) datasets [Yang, W.; Soares, J.; Greninger, P.; Edelman, E. J.; Lightfoot, H.; Forbes, S.; Bindal, N.; Beare, D.; Smith, J. A.; Thompson, I. R.; et al. Genomics of Drug Sensitivity in Cancer (GDSC): a resource for therapeutic biomarker discovery in cancer cells. Nucleic acids research 2013, 41, D955-961, doi:10.1093/nar/gksllll, Iorio, F.; Knijnenburg, T. A.; Vis, D. J.; Bignell, G. R.; Menden, M. P.; Schubert, M.; Aben, N.; Goncalves, E.; Barthorpe, S.; Lightfoot, H.; et al. A Landscape of Pharmacogenomic Interactions in Cancer. Cell 2016, 166, 740-754, doi:10.1016/j.cell.2016.06.017, Garnett, M. J.; Edelman, E. J.; Heidorn, S. J.; Greenman, C. D.; Dastur, A.; Lau, K. W.; Greninger, P.; Thompson, I. R.; Luo, X.; Soares, J.; et al. Systematic identification of genomic markers of drug sensitivity in cancer cells. Nature 2012, 483, 570-575, doi:10.1038/nature11005], which were made available through CancerRxGene (https://www.cancerrxgene.org/, accessed on 25 May 2023). In this study, we examined drug sensitivity using various measurements, including IC50, ln(IC50), EC50, and ln(EC50). Further details regarding the categorization of drug sensitivity and resistance can be found in our previous work [Ye, Q.; Mohamed, R.; Dukhlallah, D.; Gencheva, M.; Hu, G.; Pearce, M. C.; Kolluri, S. K.; Marsh, C. B.; Eubank, T. D.; Ivanov, A. V.; et al. Molecular Analysis of ZNF71 KRAB in Non-Small-Cell Lung Cancer. International journal of molecular sciences 2021, 22, doi:10.3390/ijms22073752, Ye, Q.; Singh, S.; Qian, P. R.; Guo, N. L. Immune-Omics Networks of CD27, PD1, and PDL1 in Non-Small Cell Lung Cancer. Cancers (Basel) 2021, 13, doi:10.3390/cancers13174296].
(§2) For drug sensitivity analysis, we classified the breast cancer cell lines as sensitive or resistant to each drug based on the measurements of IC50, ln(IC50), EC50, and ln(EC50), following the classification method described in our previous publications. Both mRNA and protein expression levels were considered in determining the association with drug sensitivity.

Data set [2] relates to HCC38. Put plainly: Drug sensitivity (PRISM) of breast cancer cell line HCC38. Format: cell-based, human. The conditions noted are these: TNBC cell line HCC38; categorised from IC50, ln(IC50), EC50, ln(EC50).
Source text: as §1, §2
(§3) Drug Sensitivity in CCLE. This study used drug sensitivity data of human breast cancer cell lines from various sources. The DepMap portal provided the secondary Profiling Relative Inhibition Simultaneously in Mixtures (PRISM) [Corsello, S. M.; Nagari, R. T.; Spangler, R. D.; Rossen, J.; Kocak, M.; Bryan, J. G.; Humeidi, R.; Peck, D.; Wu, X.; Tang, A. A.; et al. Discovering the anti-cancer potential of non-oncology drugs by systematic viability profiling. Nat. Cancer 2020, 1, 235-248. https://doi.org/10.1038/s43018-019-0018-6] repurposing dataset (PRISM repurposing 19Q4, accessed on 3 Apr. 2023), which includes screening results of 1447 compounds in 22 human breast cancer cell lines. Additionally, we downloaded the Genomics of Drug Sensitivity in Cancer (GDSC1 and GDSC2) datasets [Yang, W.; Soares, J.; Greninger, P.; Edelman, E. J.; Lightfoot, H.; Forbes, S.; Bindal, N.; Beare, D.; Smith, J. A.; Thompson, I. R.; et al. Genomics of Drug Sensitivity in Cancer (GDSC): A resource for therapeutic biomarker discovery in cancer cells. […]

The subject of data set [3] is HCC1806. Put plainly: Drug sensitivity categorisation of breast cancer cell line HCC1806. Type of data set: cell-based, human. As to conditions: TNBC cell line HCC1806; categorised from IC50, ln(IC50), EC50, ln(EC50).
Source text: as §1, §2

For data set [4], the system named is HCC1143. Put plainly: Drug sensitivity categorisation of breast cancer cell line HCC1143. Format: cell-based, human. The conditions noted are these: TNBC cell line HCC1143; categorised from IC50, ln(IC50), EC50, ln(EC50).
Source text: as §1, §2

In data set [5] the test system is HCC1937. Kind of data set: Drug sensitivity (PRISM) of breast cancer cell line HCC1937. Format: cell-based, human. The conditions noted are these: TNBC cell line HCC1937; categorised from IC50, ln(IC50), EC50, ln(EC50).
Source text: as §1, §2, §3

For data set [6], the system named is T47D breast cancer cells. As to conditions: cited from earlier work.
The subject of data set [7] is human NSCLC cell lines. Put plainly: PRISM drug response (IC50/EC50) in CCLE NSCLC cell lines. Type of data set: cell-based. As to conditions: average across CCLE human NSCLC cell lines, PRISM data.
Source text: Drug Response. The PRISM (Profiling Relative Inhibition Simultaneously in Mixtures) framework [Corsello, S. M., et al., Discovering the anti-cancer potential of non-oncology drugs by systematic viability profiling. […] 235-248] is a computational tool that estimates drug sensitivities of cancer cell lines using molecular profiling data, particularly gene expression data from the CCLE database. It was obtained the PRISM repurposing dataset of the secondary screen from DepMap release PRISM Repur-posing 19Q4 (https://depmap.org/portal/download/all/, accessed on 25 Jan. 2023). For this study, the PRISM drug response data was used from 94 NSCLC cell lines for 1,448 compounds to investigate the drug sensitivity of specific genes.
For data set [8], the system named is advanced solid tumors. The conditions noted are these: Phase I, cited from earlier work.
The conditions of data set [9]: Phase I clinical trials; cited from earlier work.
For data set [10] the following is noted: Phase II clinical studies; cited from earlier work.
Where [11] appears, read: patients with advanced solid tumors.

`N#C/C(=C(/N)Sc1ccc(N)cc1)c1ccccc1C(F)(F)F` [BRD-K12244279]: the “cell line sensitive or resistant to drug” value in data set [1] is listed as “resistant”.
On to `CNC(=O)c1cc(Oc2ccc(NC(=O)Nc3ccc(Cl)c(C(F)(F)F)c3)cc2)ccn1` [sorafenib], for which the “cell line sensitive or resistant to drug” value in [2] and in data set [3] was “sensitive” in each case.
Regarding `Cc1cn(-c2cc(NC(=O)c3ccc(C)c(Nc4nccc(-c5cccnc5)n4)c3)cc(C(F)(F)F)c2)cn1` [nilotinib], the “cell line sensitive or resistant to drug” value is listed as “resistant” in data set [2], “resistant” in data set [4], “resistant” in data set [5] and “sensitive” in data set [3].
For `OCc1ccc(-c2ccc(-c3ccc(CO)s3)o2)s1` [RITA], the “cell line sensitive or resistant to drug” value in [2], in data set [4], in [1], in data set [5] and in data set [3] was “sensitive” in each case.
As for `Cc1cc(I)ccc1Nc1c(C(=O)NOCC2CC2)cc(F)c(F)c1F` [PD198306], the “ERK phosphorylation response to MEK inhibition” value in data set [6] is on record as “resistance”. For the same compound, the “cell line sensitive or resistant to drug” value in [2] was “resistant”; in data set [4] it was “sensitive”; in data set [1], “sensitive”; in data set [5] it was “resistant”; in data set [3] it was “sensitive”.
As to `C(#CCN1CCCC1)CN1CCCC1` [tremorine], the “cell line sensitive or resistant to drug” value in data set [2], in [4], in data set [5] and in data set [3] was “sensitive” each time.
`CC[C@@H]1C(=O)OC[C@@H]1Cc1cncn1C` [pilocarpine]: the “cell line sensitive or resistant to drug” value in data set [2], in data set [4], in data set [5] and in data set [3] was “sensitive” throughout.
As for `COc1cccc2c1C(=O)c1c(O)c3c(c(O)c1C2=O)C[C@@](O)(C(C)=O)C[C@@H]3O[C@H]1C[C@H](N)[C@H](O)[C@H](C)O1` [daunorubicin], in [7], the “averaged IC50 and EC50” value is “low”.
On to `c1ccc2c(CCNc3ccc(Nc4ccncc4)cc3)c[nH]c2c1` [serdemetan], for which the “cell line sensitive or resistant to drug” value in data set [2] and in data set [4] was “sensitive” each time. In addition, the tumor response result in data set [8] (a breast cancer patient) was “partial response”. The QTc liability result in data set [8] (setting [11]) is “exposure-related QTc liability”. For the same compound, the tolerability result in data set [8] (setting [11]) is given as “well tolerated”.
In the case of `Cc1cnc(Nc2ccc(OCCN3CCCC3)cc2)nc1Nc1cccc(S(=O)(=O)NC(C)(C)C)c1` [TG101348], the “cell line sensitive or resistant to drug” value in data set [1], in [5] and in data set [3] was “sensitive” in each case.
`C[C@@H](N)[C@H]1CC[C@H](C(=O)Nc2ccncc2)CC1` [Y-27632]: the “cell line sensitive or resistant to drug” value in [2], in data set [4] and in data set [3] was “sensitive” in each case.
For `COc1cccc(-c2cc(=O)c3ccccc3o2)c1N` [PD98059], the “ERK phosphorylation response to MEK inhibition” value in [6] was “resistance”. Further, the “cell line sensitive or resistant to drug” value is on record as “sensitive” in [2], “sensitive” in data set [1], “resistant” in data set [5] and “sensitive” in [3].
Turning to `O=C(Nc1cccc(Nc2ncc(Br)c(NCCc3cnc[nH]3)n2)c1)N1CCCC1` [BX-912], in [7], the “averaged IC50 and EC50” value is listed as “low”.
Regarding `N#CC(=C(/N)Sc1ccccc1N)/C(C#N)=C(\N)Sc1ccccc1N` [U0126], the “ERK phosphorylation response to MEK inhibition” value in [6] is “resistance”. Also, the “cell line sensitive or resistant to drug” value in [1] is reported as “sensitive”.
Take `O=C(NOCC1CC1)c1ccc(F)c(F)c1Nc1ccc(I)cc1Cl` [PD184352]: the “cell line sensitive or resistant to drug” value in data set [2] is “resistant”; in data set [4], “sensitive”; in data set [1], “sensitive”. The tolerability result in data set [9] is listed as “well tolerated”. Also, the efficacy result in data set [10] is “insufficient efficacy”.
For the compound `O=C(NC[C@H](O)CO)c1ccncc1Nc1ccc(I)cc1F` [AS703026], the “cell line sensitive or resistant to drug” value in [5] and in data set [3] was “resistant” throughout.
Consider `O=C(NOC[C@H](O)CO)c1ccc(F)c(F)c1Nc1ccc(I)cc1F` [PD0325901], for which the “cell line sensitive or resistant to drug” value in data set [2] was “resistant”; in data set [4], “sensitive”; in data set [1], “resistant”; in data set [5] it was “resistant”; in data set [3] it was “sensitive”.
